Source: US11780832B2, “Lactivicin compounds, their preparation and use as antibacterial agents” (priority 2021, dated 2023)
Values after ≈ are worked out from the molar mass of the structure shown.

Experiments:
Format in all cases: cell-based
[1] = test system: Escherichia coli Isogenic TEM-10; assay: MIC, CLSI broth microdilution
In short: (§1)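 Genotyped isolates from ATCC or clinical specimens were passaged twice from frozen stock and tested at 5×10^5 CFU/mL final inoculum. Compounds were 2-fold diluted to final 16-0.0125 μg/mL per CLSI broth microdilution.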

[2] = test system: Citrobacter freundii species complex Elevated AmpC; assay: Synergistic activity: MIC in the presence of Avibactam; conditions: row r16, in the presence of Avibactam @ 4 μg/mL
Protocol: (§2) Isolates were sub-cultured onto appropriate media and stocked in skim milk at −80° C. Following two subcultures from frozen stock, in vitro antimicrobial susceptibility testing was performed using the Clinical and Laboratory Standards Institute (CLSI) broth microdilution method. Briefly, fresh cultures were suspended in culture media to give a final stock inoculum size of 5×10^7 colony forming units per milliliter of broth (CFU/mL). Test compounds were prepared at a stock solution concentration equal to 128 μg/mL, then diluted to give a final an initial working concentration of 32 μg/mL. 100 μL of the stock solutions were added to the first wells in a 96-well plate and were then diluted using a 2-fold dilution method to give a range of 32-0.025 μg/mL. 100 μL of the bacterial suspensions were then added to the 96-well plates to give a final working inoculum size of 5×10^5 CFU/mL. The final compound concentration range was 16-0.0125 μg/mL. […] MICs for comparator agents were determined using custom-designed, in-house prepared 96-well broth microdilution panels.
(§3) The same method used to test the activity of the claimed compounds was used to determine their synergistic activity when combined with a β-lactamase inhibitor except that either a fixed concentration or fixed ratio of a β-lactamase inhibitor was added to the 96-well plates prior to adding the bacteria cultures. Synergistic activity was defined as the reduction of MIC of a given compound when tested using the β-lactamase inhibitor versus testing the compound in the absence of a β-lactamase inhibitor.

[3] = test system: Escherichia coli CMY-DHA; assay: as above
Protocol: as §2, §3

[4] = test system: Escherichia coli Elevated AmpC; assay: as above
Protocol: as §2, §3

[5] = test system: Klebsiella pneumoniae CMY-DHA; assay: as above; conditions: row r32, in the presence of Avibactam @ 4 μg/mL
Protocol: as §2, §3

[6] = test system: Proteus mirabilis CMY-DHA; assay: as above; conditions: row r36, in the presence of Avibactam @ 4 μg/mL
Protocol: as §2, §3

[7] = test system: Escherichia coli Empty pSMART plasmid; assay: MIC, CLSI broth microdilution
In short: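 MIC values come from CLSI broth microdilution against clinical and ATCC isolates whose resistance genes had been characterized. Compound dilutions were two-fold, with final concentrations between 16 and 0.0125 μg/mL.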

[8] = test system: Escherichia coli Isogenic TEM-26; assay: MIC, CLSI broth microdilution
In short: as §1

[9] = test system: Escherichia coli pSMART_Ecloacae_AmpC; assay: MIC, CLSI broth microdilution
In short: as §1

[10] = strain of row r26, in the presence of Avibactam @ 4 μg/mL
[11] = strain of row r27, in the presence of Avibactam @ 4 μg/mL
[12] = strain of row r28, in the presence of Avibactam @ 4 μg/mL
[13] = strain of row r29, in the presence of Avibactam @ 4 μg/mL
[14] = strain of row r30, in the presence of Avibactam @ 4 μg/mL
[15] = strain of row r31, in the presence of Avibactam @ 4 μg/mL
[16] = strain of row r34, in the presence of Avibactam @ 4 μg/mL
[17] = strain of row r35, in the presence of Avibactam @ 4 μg/mL
[18] = strain of row r10, in the presence of Avibactam @ 4 μg/mL
[19] = strain of row r11, in the presence of Avibactam @ 4 μg/mL
[20] = strain of row r12, in the presence of Avibactam @ 4 μg/mL
[21] = strain of row r13, in the presence of Avibactam @ 4 μg/mL
[22] = strain of row r14, in the presence of Avibactam @ 4 μg/mL
[23] = strain of row r15, in the presence of Avibactam @ 4 μg/mL

Nc1nc(/C(=N/OC2(C(=O)O)CCOCC2)C(=O)N[C@H]2CON(C3(C(=O)O)C[C@H](N4C(=O)c5cc(O)c(O)nc5C4=O)C(=O)O3)C2=O)cs1 (stereo partly drawn) [Cmpd 26, 4-({(Z)-[1-(2-amino-1,3-thiazol-4-yl)-2-({(4S)-2-[(4S)-2-carboxy-4-(2,3-dihydroxy-5,7-dioxo-5,7-dihydro-6H-pyrrolo[3,4-b]pyridin-6-yl)-5-oxooxolan-2-yl]-3-oxo-1,2-oxazolidin-4-yl}amino)-2-oxoethylidene]amino}oxy)oxane-4-carboxylic acid]
MIC [1]: 0.03 µg/mL (≈ 0.0425 µM) | MIC [2]: 0.25 µg/mL | MIC [3, 10]: 0.25 µg/mL | MIC [3, 11]: 0.03 µg/mL | MIC [3, 12]: 0.06 µg/mL | MIC [3, 13]: 0.5 µg/mL | MIC [3, 14]: <=0.008 μg/mL | MIC [3, 15]: 0.5 µg/mL | MIC [3, 16]: 0.06 µg/mL | MIC [3, 17]: 0.06 µg/mL | MIC [4, 18]: 0.015 µg/mL | MIC [4, 19]: 0.12 µg/mL | MIC [4, 20]: 0.25 µg/mL | MIC [4, 21]: <=0.008 μg/mL | MIC [4, 22]: 0.015 µg/mL | MIC [4, 23]: 0.12 µg/mL | MIC [5]: 0.5 µg/mL | MIC [6]: 0.06 µg/mL

CC(C)(O/N=C(\C(=O)N[C@@H]1C(=O)N2C(C(=O)[O-])=C(C[n+]3ccccc3)CS[C@H]12)c1csc(N)n1)C(=O)O [Ceftazidime, ceftazidime, reference compound]
MIC [7]: 0.25 µg/mL (≈ 0.457 µM) | MIC [1]: > 32 µg/mL | MIC [8]: > 32 µg/mL | MIC [2]: 0.25 µg/mL | MIC [3, 10]: 0.5 µg/mL | MIC [3, 11]: 0.5 µg/mL | MIC [3, 12]: 0.06 µg/mL | MIC [3, 13]: 0.12 µg/mL | MIC [3, 14]: <=0.015 μg/mL | MIC [3, 15]: 0.12 µg/mL | MIC [3, 16]: 0.5 µg/mL | MIC [3, 17]: 0.25 µg/mL | MIC [4, 18]: 0.12 µg/mL | MIC [4, 19]: 0.06 µg/mL | MIC [4, 20]: 0.12 µg/mL | MIC [4, 21]: 0.12 µg/mL | MIC [4, 22]: 0.12 µg/mL | MIC [4, 23]: 0.5 µg/mL | MIC [5]: 0.12 µg/mL | MIC [6]: 0.12 µg/mL

Nc1nc(/C(=N/OC2(C(=O)O)CC2)C(=O)N[C@H]2CON(C3(C(=O)O)C[C@H](N4Cc5cc(O)c(O)cc5C4=O)C(=O)O3)C2=O)cs1 (stereo partly drawn) [Cmpd 28, (4S)-2-[(4S)-4-{[(2Z)-2-(2-amino-1,3-thiazol-4-yl)-2-{[(1-carboxycyclopropyl)oxy]imino}acetyl]amino}-3-oxo-1,2-oxazolidin-2-yl]-4-(5,6-dihydroxy-1-oxo-1,3-dihydro-2H-isoindol-2-yl)-5-oxooxolane-2-carboxylic acid]
MIC [1]: 0.03 µg/mL (≈ 0.0464 µM) | MIC [8]: 0.03 µg/mL (≈ 0.0464 µM) | MIC [2]: 0.12 µg/mL | MIC [3, 10]: 0.12 µg/mL | MIC [3, 11]: <=0.008 μg/mL | MIC [3, 12]: 0.06 µg/mL | MIC [3, 13]: 0.12 µg/mL | MIC [3, 14]: <=0.008 μg/mL | MIC [3, 15]: 0.12 µg/mL | MIC [3, 16]: 0.015 µg/mL | MIC [3, 17]: 0.03 µg/mL | MIC [4, 18]: 0.015 µg/mL | MIC [4, 19]: 0.06 µg/mL | MIC [4, 20]: 0.03 µg/mL | MIC [4, 21]: <=0.008 μg/mL | MIC [4, 22]: 0.06 µg/mL | MIC [4, 23]: 0.25 µg/mL | MIC [5]: 0.12 µg/mL | MIC [6]: 0.03 µg/mL

Nc1nc(/C(=N/OC2(C(=O)O)CC2)C(=O)N[C@H]2CON(C3(C(=O)O)C[C@H](N4C(=O)c5cc(O)c(O)cc5C4=O)C(=O)O3)C2=O)cs1 (stereo partly drawn) [Cmpd 1, (4S)-2-[(4S)-4-{[(2Z)-2-(2-amino-1,3-thiazol-4-yl)-2-{[(1-carboxycyclopropyl)oxy]imino}acetyl]amino}-3-oxo-1,2-oxazolidin-2-yl]-4-(5,6-dihydroxy-1,3-dioxo-1,3-dihydro-2H-isoindol-2-yl)-5-oxooxolane-2-carboxylic acid]
MIC [1]: 0.0149 µg/mL (≈ 0.0226 µM) | MIC [8]: 0.0149 µg/mL (≈ 0.0226 µM) | MIC [9]: 0.03 µg/mL (≈ 0.0454 µM) | MIC [2]: 0.03 µg/mL | MIC [3, 10]: 0.03 µg/mL | MIC [3, 11]: <=0.008 μg/mL | MIC [3, 12]: <=0.008 μg/mL | MIC [3, 13]: 0.06 µg/mL | MIC [3, 14]: <=0.008 μg/mL | MIC [3, 15]: 0.06 µg/mL | MIC [3, 16]: <=0.008 μg/mL | MIC [3, 17]: <=0.008 μg/mL | MIC [4, 18]: <=0.008 μg/mL | MIC [4, 19]: <=0.008 μg/mL | MIC [4, 20]: 0.015 µg/mL | MIC [4, 21]: <=0.008 μg/mL | MIC [4, 22]: <=0.008 μg/mL | MIC [4, 23]: 0.06 µg/mL | MIC [5]: 0.5 µg/mL | MIC [6]: 0.03 µg/mL

Nc1nc(/C(=N/OC2(C(=O)O)CCOCC2)C(=O)N[C@H]2CON(C3(C(=O)O)C[C@H](N4C(=O)c5cc(O)c(O)cc5C4=O)C(=O)O3)C2=O)cs1 (stereo partly drawn) [Cmpd 8, 4-({(Z)-[1-(2-amino-1,3-thiazol-4-yl)-2-({(4S)-2-[(4S)-2-carboxy-4-(5,6-dihydroxy-1,3-dioxo-1,3-dihydro-2H-isoindol-2-yl)-5-oxooxolan-2-yl]-3-oxo-1,2-oxazolidin-4-yl}amino)-2-oxoethylidene]amino}oxy)oxane-4-carboxylic acid]
MIC [1]: 0.0149 µg/mL (≈ 0.0211 µM) | MIC [8]: 0.0149 µg/mL (≈ 0.0211 µM) | MIC [2]: 0.03 µg/mL | MIC [3, 10]: 0.03 µg/mL | MIC [3, 11]: <=0.008 μg/mL | MIC [3, 12]: <=0.008 μg/mL | MIC [3, 13]: 0.06 µg/mL | MIC [3, 14]: <=0.008 μg/mL | MIC [3, 15]: 0.06 µg/mL | MIC [3, 16]: 0.015 µg/mL | MIC [3, 17]: <=0.008 μg/mL | MIC [4, 18]: <=0.008 μg/mL | MIC [4, 19]: 0.03 µg/mL | MIC [4, 20]: 0.03 µg/mL | MIC [4, 21]: <=0.008 μg/mL | MIC [4, 22]: <=0.008 μg/mL | MIC [4, 23]: 0.06 µg/mL | MIC [5]: 0.25 µg/mL | MIC [6]: 0.5 µg/mL

Nc1nc(/C(=N/OC2(C(=O)O)CC2)C(=O)N[C@H]2CON(C3(C(=O)O)C[C@H](N4C(=O)c5cc(O)c(O)cc5C4=O)C(=O)O3)C2=O)ns1 (stereo partly drawn) [Cmpd 18, (4S)-2-[(4S)-4-{[(2Z)-2-(5-amino-1,2,4-thiadiazol-3-yl)-2-{[(1-carboxycyclopropyl)oxy]imino}acetyl]amino}-3-oxo-1,2-oxazolidin-2-yl]-4-(5,6-dihydroxy-1,3-dioxo-1,3-dihydro-2H-isoindol-2-yl)-5-oxooxolane-2-carboxylic acid]
MIC [7]: 0.0149 µg/mL (≈ 0.0225 µM) | MIC [2]: 0.03 µg/mL | MIC [3, 10]: 0.03 µg/mL | MIC [3, 11]: <=0.008 μg/mL | MIC [3, 12]: 0.03 µg/mL | MIC [3, 13]: 0.06 µg/mL | MIC [3, 14]: <=0.008 μg/mL | MIC [3, 15]: 0.06 µg/mL | MIC [3, 16]: 0.015 µg/mL | MIC [3, 17]: 0.015 µg/mL | MIC [4, 18]: <=0.008 μg/mL | MIC [4, 19]: <=0.008 μg/mL | MIC [4, 20]: 0.06 µg/mL | MIC [4, 21]: <=0.008 μg/mL | MIC [4, 22]: <=0.008 μg/mL | MIC [4, 23]: 0.06 µg/mL | MIC [5]: 0.25 µg/mL | MIC [6]: 0.06 µg/mL

Nc1nc(/C(=N/OC2(C(=O)O)CCC(F)(F)CC2)C(=O)N[C@H]2CON(C3(C(=O)O)C[C@H](N4C(=O)c5cc(O)c(O)cc5C4=O)C(=O)O3)C2=O)cs1 (stereo partly drawn) [Cmpd 10, (4S)-2-[(4S)-4-{[(2Z)-2-(2-amino-1,3-thiazol-4-yl)-2-{[(1-carboxy-4,4-difluorocyclohexyl)oxy]imino}acetyl]amino}-3-oxo-1,2-oxazolidin-2-yl]-4-(5,6-dihydroxy-1,3-dioxo-1,3-dihydro-2H-isoindol-2-yl)-5-oxooxolane-2-carboxylic acid]
MIC [7]: ≤ 0.015 µg/mL | MIC [2]: 0.03 µg/mL | MIC [3, 10]: 0.06 µg/mL | MIC [3, 11]: <=0.008 μg/mL | MIC [3, 12]: 0.03 µg/mL | MIC [3, 13]: 0.06 µg/mL | MIC [3, 14]: <=0.008 μg/mL | MIC [3, 15]: 0.06 µg/mL | MIC [3, 16]: 0.015 µg/mL | MIC [3, 17]: 0.015 µg/mL | MIC [4, 18]: <=0.008 μg/mL | MIC [4, 19]: 0.03 µg/mL | MIC [4, 20]: 0.03 µg/mL | MIC [4, 21]: <=0.008 μg/mL | MIC [4, 22]: <=0.008 μg/mL | MIC [4, 23]: 0.06 µg/mL | MIC [5]: 0.25 µg/mL | MIC [6]: 0.5 µg/mL
